US4454123A, “O-xylopyranoside series compounds and methods of use” (Seikagaku Kogyo Co. Ltd., priority 1980, dated 1984)
Where two headings read alike, the source gives them in different places.

Assays:
[1] = Acute toxicity (LD50) by oral or intraperitoneal administration to ddY mice (Test Example 6); format: in vivo; conditions: mouse, in vivo, 7 days
Procedure: (§1) The acute toxicity of the compound according to this invention was determined by forced oral or intraperitoneal administration thereof to ddY mice.
(§2) To prepare each specimen to be administered, a predetermined amount of each compound shown in Table 5 was dissolved in a physiological saline or suspended in a 0.2% solution of carboxymethylcellulose in a physiological saline. Each specimen was administered orally to a ddY mouse via its stomach tube or injected intraperitoneally.

Sarcoma-180 = experiment: Activity against a transplantable cancer, Sarcoma-180 (Test Example 7); format: in vivo, ICR-JCL mice; conditions: 100 mg/kg ip once a day for 10 days; for inhibition in vivo at 100 mg/kg: Mus musculus, Sarcoma-180, ip, 240 h, read-out: I.R. (inhibition ratio, Sarcoma-180 tumor weight)
Procedure: Sarcoma-180 cells (1×10^6 cells) were inoculated subcutaneously into the back skin of each of ICR-JCL mice.
Chemotherapy was given intraperitoneally 24 hrs. after inoculation and performed once a day for 10 days. Each specimen to be administered was prepared by dissolving or suspending 30 mg of each compound according to this invention in 1 ml of a physiological saline or in 1 ml of a 0.2% solution of carboxymethylcellulose in a physiological saline, respectively.
All the solutions and the suspensions thus prepared were injected at a volume of 0.1 ml as a single dose (100 mg/Kg).
The inhibition ratio (%) was calculated according to the following equation: […]
wherein T represents the mean weight of the tumor Sarcoma-180 in a tested group of mice; and C represents the mean weight of the tumor in a control group of mice.

[2] = tested on: platelet agglutination caused by collagen; experiment: Inhibitory effect against platelet agglutinating agent collagen (Test Example 8); format: cell-based, human; design: key: The degree of agglutination was expressed by using marks +, ++, +++, etc.; The degree of agglutination was expressed by using marks +, ++, +++, etc.; The degree of agglutination was expressed by using marks +, ++, +++, etc; conditions: specimen 2 mM, dissolved in 50% ethanol
Procedure: (§3) Inhibitory activities of each compound of this invention against platelet agglutinating agents (ADP, collagen, thrombin, ristocetin and epinephrine)were investigated according to the method using a microscope.
(§4) PRP was prepared by mixing a 3.8% aqueous sodium citrate and a human vein blood at a ratio of 1:9; centrifuging the mixture at 700 r.p.m. for 10 minutes; and then collecting the supernatant.
(§5) The residue remaining after collection of the PRP mentioned above was subjected further to centrifugation at 3000 r.p.m. for 10 minutes and then collected the supernatant to obtain PPP.
(§6) Following solutions were employed for the test.
b. collagen (0.25 μM/ml solution)
(§7) In each well of a Multidish (Nunc Multidish having 24 wells) was placed 0.2 ml of PRP (containing 3.0×10^5 platelet cells/cmm).
(§8) Thereto was added 50 μl of a specimen solution containing 10 mM of the compound according to this invention, and the mixture was stirred at 37° C. for 2 minutes. To the mixture was added 10 μl of each solution of the platelet agglutinating agent mentioned above, and the result was observed by using a microscope 1 minute and then 5 minutes thereafter.
(§9) The degree of agglutination was expressed by using marks +, ++, +++, etc., according to the method by Fukutake et al [Katsuhiro Fukutake, Iwao Yamaguchi: Blood and Blood Vessel, Volume 6, No. 7, pp. 55-60 (1975)].

[3] = tested on: platelet agglutination caused by thrombin; experiment: Inhibitory effect against platelet agglutinating agent thrombin (Test Example 8); format: cell-based, human; design: key: The degree of agglutination was expressed by using marks +, ++, +++, etc.; The degree of agglutination was expressed by using marks +, ++, +++, etc.; The degree of agglutination was expressed by using marks +, ++, +++, etc; conditions: specimen 2 mM, dissolved in 50% ethanol
Procedure: as §3, §4, §5, §6
c. thrombin (0.25 U/ml solution)
as §7, §8, §9

[4] = tested on: platelet agglutination caused by ristocetin; experiment: Inhibitory effect against platelet agglutinating agent ristocetin (Test Example 8); format: cell-based, human; design: key: The degree of agglutination was expressed by using marks +, ++, +++, etc.; The degree of agglutination was expressed by using marks +, ++, +++, etc.; The degree of agglutination was expressed by using marks +, ++, +++, etc; conditions: specimen 2 mM, dissolved in 50% ethanol
Procedure: as §3, §4, §5, §6
d. ristocetin (1.5 mg/ml solution)
as §7, §8, §9

ddY mice = experiment: Acute toxicity (LD50) by oral or intraperitoneal administration to ddY mice (Test Example 6); format: in vivo; conditions: 7 days, 10080 min; for LD50 (ip): intraperitoneal
Procedure: as §1, §2

[5] = tested on: platelet agglutination caused by ADP; experiment: Inhibitory effect against platelet agglutinating agent ADP (Test Example 8); format: cell-based, human; design: key: The degree of agglutination was expressed by using marks +, ++, +++, etc.; The degree of agglutination was expressed by using marks +, ++, +++, etc.; The degree of agglutination was expressed by using marks +, ++, +++, etc; conditions: specimen 2 mM, dissolved in 50% ethanol
Procedure: as §3, §4, §5, §6
a. ADP (2 μM/ml solution)
as §7, §8, §9

[6] = tested on: platelet agglutination caused by epinephrine; experiment: Inhibitory effect against platelet agglutinating agent epinephrine (Test Example 8); format: cell-based, human; design: key: The degree of agglutination was expressed by using marks +, ++, +++, etc.; The degree of agglutination was expressed by using marks +, ++, +++, etc.; The degree of agglutination was expressed by using marks +, ++, +++, etc; conditions: specimen 2 mM, dissolved in 50% ethanol
Procedure: as §3, §4, §5, §6
e. epinephrine (2 μg/ml solution)
as §7, §8, §9

[7] = ip, intraperitoneal, read-out: LD50 (ip)

| SMILES | LD50 at 168 h [1, 7] [mg/kg] | LD50 at 168 h ([1]; po, read-out: LD50 (po)) [mg/kg] | inhibition in vivo at 100 mg/kg (Sarcoma-180) [%] | State of agglutination, 5 min. [2] | State of agglutination, 5 min. [3] | State of agglutination, 5 min. [4] | LD50 (ip) (ddY mice) [mg/kg body weight] | LD50 (po) (ddY mice) [mg/kg body weight] | I.R. (inhibition ratio, Sarcoma-180 tumor weight) (Sarcoma-180) [%] | State of agglutination, 5 min. [5] | State of agglutination, 5 min. [6] |
| --- | --- | --- | --- | --- | --- | --- | --- | --- | --- | --- | --- |
| CCCCCCCCCCCC[C@@H]1OC[C@@H](O)[C@H](O)[C@H]1O [C-n-Lauryl-β-D-xylopyranoside] | 620 | 2800 | 83.4 | + | + | + |  |  |  |  |  |
| O=C(O)c1ccc(S[C@@H]2OC[C@@H](O)[C@H](O)[C@H]2O)cc1 [Para(sodiumoxycarbonyl)phenyl 1-thio-β-D-xylopyranoside] |  |  |  |  |  |  | 2600 | 7000 | 49.6 |  |  |
| CCCCCCCCCCCCCCCCCCCCS[C@@H]1OC[C@@H](O)[C@H](O)[C@H]1O [n-Eicosyl 1-thio-β-D-xylopyranoside] | 400 | 2300 | 32.2 | + | + | + |  |  |  | + |  |
| CCCCCCCCCCS[C@@H]1OC[C@@H](O)[C@H](O)[C@H]1O [n-Decyl 1-thio-β-D-xylopyranoside] | 450 | 2500 | 40 | + | + | + |  |  |  | + | + |
| CCCCCCCCCCCCS[C@@H]1OC[C@@H](O)[C@H](O)[C@H]1O [n-Lauryl 1-thio-β-D-xylopyranoside] | 407 | 2300 | 42.3 | + | + | + |  |  |  | + |  |
| CCCCCCCCCCCCCCCCCCCC[C@@H]1OC[C@@H](O)[C@H](O)[C@H]1O [C-n-Eicosyl-β-D-xylopyranoside] | 430 | 2620 | 44.3 | + | + | + |  |  |  | + |  |
| O=C(O)c1ccc(C[C@@H]2OC[C@@H](O)[C@H](O)[C@H]2O)cc1 [C-para(sodiumoxycarbonyl)benzyl-β-D-xylopyranoside] |  |  |  |  |  |  | 3000 | 9300 | 53.2 |  |  |
| CCCCCCCCC[C@@H]1OC[C@@H](O)[C@H](O)[C@H]1O [C-n-Nonyl-β-D-xylopyranoside] | 920 | 3000 | 73.1 | + | + | + |  |  |  | + |  |
| CCCCCCCCCCCCCCCCS[C@@H]1OC[C@@H](O)[C@H](O)[C@H]1O [n-Cetyl 1-thio-β-D-xylopyranoside] | 425 | 2280 | 34.7 | + | + | + |  |  |  | + |  |
| CCCCCCCCCCCCCCCCCC[C@@H]1OC[C@@H](O)[C@H](O)[C@H]1O [C-n-Stearyl-β-D-xylopyranoside] | 480 | 2500 | 54.6 | + | + | + |  |  |  | + |  |
| O=C(O)c1ccc(O[C@@H]2OC[C@@H](O)[C@H](O)[C@H]2O)cc1 [Para(sodiumoxycarbonyl)phenyl-β-D-xylopyranoside] |  |  |  |  |  |  | 2800 | 8200 | 39.7 |  |  |
